From the supplement of paper PMC10307832

Columns and labels:
Experiment in all cases: relative viability (nuclei count vs DMSO), 5 days (fraction); higher = more cells survive
Doxorubicin + Luminespib = compound: COc1cccc2c1C(=O)c1c(O)c3c(c(O)c1C2=O)C[C@@](O)(C(=O)CO)C[C@@H]3O[C@H]1C[C@H](N)[C@H](O)[C@H](C)O1 [Doxorubicin] + CCNC(=O)c1noc(-c2cc(C(C)C)c(O)cc2O)c1-c1ccc(CN2CCOCC2)cc1 [Luminespib] (partner 0.01 µM)
Outline: (§1)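 Lung cancer cell lines in 1536-well plates got either a single drug or a fixed anchor-drug dose together with five library-drug doses (not always all listed) in √10 steps, by pin tool, on the day after seeding. Nuclei were counted after 5 days, and relative viability is the treated-to-vehicle ratio of nuclei counts. Values are medians of duplicate plates.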

BAY61-3606 + Crizotinib = compound: COC1=C(C=C(C=C1)C2=CC3=NC=CN3C(=N2)NC4=C(C=CC=N4)C(=O)N)OC [BAY61-3606] + C[C@@H](Oc1cc(-c2cnn(C3CCNCC3)c2)cnc1N)c1c(Cl)ccc(F)c1Cl [Crizotinib] (partner 1 µM)
Outline: as §1

Doxorubicin + Dasatinib = compound: COc1cccc2c1C(=O)c1c(O)c3c(c(O)c1C2=O)C[C@@](O)(C(=O)CO)C[C@@H]3O[C@H]1C[C@H](N)[C@H](O)[C@H](C)O1 [Doxorubicin] + Cc1nc(Nc2ncc(C(=O)Nc3c(C)cccc3Cl)s2)cc(N2CCN(CCO)CC2)n1 [Dasatinib] (partner 0.075 µM)
Outline: as §1

Doxorubicin + Navitoclax = compound: COc1cccc2c1C(=O)c1c(O)c3c(c(O)c1C2=O)C[C@@](O)(C(=O)CO)C[C@@H]3O[C@H]1C[C@H](N)[C@H](O)[C@H](C)O1 [Doxorubicin] + CC1(C)CCC(c2ccc(Cl)cc2)=C(CN2CCN(c3ccc(C(=O)NS(=O)(=O)c4ccc(N[C@H](CCN5CCOCC5)CSc5ccccc5)c(S(=O)(=O)C(F)(F)F)c4)cc3)CC2)C1 [Navitoclax] (partner 0.5 µM)
Outline: as §1

| Cell Line | relative viability (Doxorubicin + Luminespib; first compound 0.001 µM) | relative viability (Doxorubicin + Luminespib; first compound 0.003162 µM) | relative viability (Doxorubicin + Luminespib; first compound 0.01 µM) | relative viability (Doxorubicin + Luminespib; first compound 0.03162 µM) | relative viability (Doxorubicin + Luminespib; first compound 0.1 µM) | relative viability (BAY61-3606 + Crizotinib; first compound 0.02 µM) | relative viability (BAY61-3606 + Crizotinib; first compound 0.06325 µM) | relative viability (BAY61-3606 + Crizotinib; first compound 0.2 µM) | relative viability (BAY61-3606 + Crizotinib; first compound 0.6325 µM) | relative viability (BAY61-3606 + Crizotinib; first compound 2 µM) | relative viability (Doxorubicin + Dasatinib; first compound 0.001 µM) | relative viability (Doxorubicin + Dasatinib; first compound 0.003162 µM) | relative viability (Doxorubicin + Dasatinib; first compound 0.01 µM) | relative viability (Doxorubicin + Dasatinib; first compound 0.03162 µM) | relative viability (Doxorubicin + Dasatinib; first compound 0.1 µM) | relative viability (Doxorubicin + Navitoclax; first compound 0.003162 µM) | relative viability (Doxorubicin + Navitoclax; first compound 0.01 µM) | relative viability (Doxorubicin + Navitoclax; first compound 0.03162 µM) | relative viability (Doxorubicin + Navitoclax; first compound 0.1 µM) | relative viability (Doxorubicin + Navitoclax; first compound 0.001 µM) |
| --- | --- | --- | --- | --- | --- | --- | --- | --- | --- | --- | --- | --- | --- | --- | --- | --- | --- | --- | --- | --- |
| LOU-NH91 | 0.34 | 0.347 | 0.314 | 0.323 | 0.328 | 0.72 | 0.722 | 0.77 | 0.777 | 0.662 | 0.488 | 0.646 | 0.529 | 0.531 | 0.474 | 0.561 | 0.711 | 0.444 | 0.405 |  |
| LU99A | 0.226 | 0.228 | 0.268 | 0.235 | 0.258 | 0.562 | 0.468 | 0.555 | 0.484 | 0.305 | 0.359 | 0.526 | 0.527 | 0.422 | 0.361 | 0.919 | 0.867 | 0.554 | 0.801 | 0.783 |
| LXF-289 | 0.63 | 0.576 | 0.703 | 0.635 | 0.658 | 0.753 | 0.82 | 0.795 | 0.821 | 0.81 | 0.224 | 0.293 | 0.241 | 0.238 | 0.281 | 0.939 | 0.873 | 0.983 | 0.944 | 0.935 |
| NCI-H23 |  | 0.221 | 0.235 | 0.18 | 0.23 | 0.53 | 0.283 | 0.505 | 0.486 | 0.264 |  | 1.01 | 0.88 | 0.668 | 0.547 | 0.686 | 0.767 | 0.698 | 0.926 |  |
| NCI-H322M | 0.635 | 0.846 | 0.858 | 0.401 | 0.357 | 0.901 | 0.756 | 0.853 | 0.842 | 1.01 | 0.29 | 0.237 | 0.27 | 0.275 | 0.272 | 1.19 | 1.15 | 1.31 | 1.26 | 1.18 |
| NCI-H441 |  | 0.312 | 0.358 | 0.321 | 0.293 | 0.668 | 0.788 | 0.833 | 0.771 | 0.414 |  | 0.585 | 0.332 | 0.166 | 0.213 | 0.688 | 0.351 | 0.308 | 0.423 |  |
| NCI-H460 | 0.0376 | 0.0412 | 0.0317 | 0.0182 | 0.0137 | 0.952 | 0.72 | 0.913 | 0.846 | 0.182 | 0.507 | 0.427 | 0.405 | 0.171 | 0.0701 | 1.18 | 0.945 | 0.0444 | 0.0158 | 1.07 |
| NCI-H520 | 0.249 | 0.242 | 0.266 | 0.18 | 0.217 | 0.881 | 0.782 | 0.871 | 0.948 | 0.593 | 0.234 | 0.218 | 0.202 | 0.151 | 0.183 | 1.29 | 1.02 | 0.886 | 1 | 1.06 |
| NCI-H596 | 0.933 | 1.21 | 0.838 | 0.821 | 1.02 | 0.969 | 1.01 | 1.08 | 1.19 | 0.931 | 0.663 | 0.621 | 0.681 | 0.506 | 0.579 | 0.963 | 0.903 | 0.832 | 0.972 | 0.931 |
| NCI-H647 | 0.117 | 0.13 | 0.11 | 0.185 | 0.149 | 1.09 | 1.1 | 0.963 | 1.03 | 0.506 | 0.186 | 0.212 | 0.166 | 0.152 | 0.0503 | 1.4 | 0.992 | 0.65 | 0.517 | 1.17 |
| NCI-H727 | 0.286 | 0.348 | 0.225 | 0.336 | 0.308 | 0.855 | 0.706 | 0.992 | 0.925 | 0.738 | 0.271 | 0.46 | 0.305 | 0.368 | 0.329 | 0.474 | 0.492 | 0.462 | 0.455 | 0.402 |
| NCI-H838 | 0.273 | 0.35 | 0.279 | 0.255 | 0.172 | 0.82 | 0.661 | 0.814 | 0.866 | 0.398 | 0.292 | 0.284 | 0.228 | 0.307 | 0.277 | 1.17 | 1.12 | 0.905 | 0.423 | 1.12 |
| NCI-H1355 | 0.697 | 0.829 | 0.686 | 0.605 | 0.732 | 1.08 | 1.04 | 1.05 | 1.07 | 0.81 | 0.723 | 0.789 | 0.722 | 0.706 | 0.764 | 1.1 | 0.911 | 0.904 | 1.06 | 0.982 |
| NCI-H1437 | 1.01 | 1.17 | 1.12 | 0.832 | 0.553 | 0.973 | 0.961 | 0.854 | 0.984 | 0.797 | 0.369 | 0.391 | 0.3 | 0.459 | 0.152 | 1.12 | 1.02 | 0.75 | 0.379 | 1.03 |
| NCI-H1650 | 0.201 | 0.182 | 0.203 | 0.223 | 0.182 | 0.936 | 1.08 | 0.866 | 1 | 0.385 | 0.37 | 0.321 | 0.301 | 0.149 | 0.11 | 1.18 | 1.11 | 0.33 | 0.203 | 1.11 |
| NCI-H1651 | 0.749 | 0.954 | 0.66 | 0.305 | 0.216 | 0.882 | 0.873 | 0.846 | 0.869 | 0.777 | 0.334 | 0.39 | 0.246 | 0.154 | 0.102 | 1.19 | 0.801 | 0.436 | 0.204 | 0.991 |
